Active and inactive are the calls of the source. The rule behind the calls is not given here.
How the values were obtained:
MDA-MB-231 [1] = assay: Cytotoxicity against human MDA-MB-231 cells assessed as reduction in cell viability after 48 hrs by MTT assay; format: functional, cell-based; conditions: MDA-MB-231, 48 h
MCF7 = assay: Cytotoxicity against human MCF7 cells assessed as reduction in cell viability after 48 hrs by MTT assay; format: functional, cell-based; conditions: MCF7, 48 h
MDA-MB-231 [2] = assay: Cytotoxicity against human MDA-MB-231 cells assessed as reduction in cell viability at 25 to 400 uM after 48 hrs by MTT assay; format: functional, cell-based; conditions: dose 25-400 µM
Ehrlich = assay: Antitumour activity against mouse EAC cells implanted in Balb/C mouse assessed as reduction in tumour volume at 60 to 120 mg/kg after 14 days; format: functional, organism-based; conditions: dose 60-120 mg/kg, time 14.0 day
[3] = Toxicity in Balb/C mouse assessed as mortality at 30 to 120 mg/kg after 24 hrs; format: organism-based; conditions: in vivo, dose 30-120 mg/kg
MDA-MB-231 [4] = assay: Induction of morphological changes in human MDA-MB-231 cells assessed as DNA fragmentation at IC50 concentration after 48 hrs by DAPI staining based fluorescent microscopic analysis; format: functional, cell-based
MDA-MB-231 [5] = assay: Induction of cell cycle arrest in human MDA-MB-231 cells assessed as increase in accumulation of cells at M phase at 12.5 to 50 uM after 24 hrs by propidium iodide staining base flow cytometric analysis; format: functional, cell-based; conditions: dose 12.5-50 µM
MDA-MB-231 [6] = assay: Induction of cell cycle arrest in human MDA-MB-231 cells assessed as accumulation of cells at G0/G1 phase at 50 uM after 24 hrs by propidium iodide staining base flow cytometric analysis (reference value: 73.2%); format: functional
HEK293 = assay: Cytotoxicity against HEK293 cells assessed as reduction in cell viability after 48 hrs by MTT assay; format: cell-based; conditions: Homo sapiens, HEK293, 48 h
MDA-MB-231 [7] = assay: Induction of morphological changes in human MDA-MB-231 cells assessed as nuclear condensation at IC50 concentration after 48 hrs by DAPI staining based fluorescent microscopic analysis; format: functional, cell-based
MDA-MB-231 [8] = assay: Down regulation of VEGFR2 in human MDA-MB-231 cells at IC50 concentration after 48 hrs by Western blot analysis; format: functional, cell-based
MDA-MB-231 [9] = assay: Induction of apoptosis in human MDA-MB-231 cells assessed as decrease in Bcl2 protein expression at IC50 concentration after 48 hrs by Western blot analysis; format: functional, cell-based
MDA-MB-231 [10] = assay: Induction of cell cycle arrest in human MDA-MB-231 cells assessed as decrease in accumulation of cells at G0/G1 phase after 24 hrs by propidium iodide staining base flow cytometric analysis; format: functional, cell-based; conditions: dose 12.5-50 µM
MDA-MB-231 [11] = assay: Induction of cell cycle arrest in human MDA-MB-231 cells assessed as accumulation of cells at G2M phase at 12.5 to 50 uM after 24 hrs by propidium iodide staining base flow cytometric analysis relative to control; format: functional; conditions: dose 12.5-50 µM
[12] = Cytotoxicity against human OSE cells assessed as reduction in cell viability after 48 hrs by MTT assay; format: cell-based; conditions: HOSE
[13] = Toxicity in Balb/C mouse implanted with EAC cells assessed as mortality at 60 to 120 mg/kg after 14 days; format: organism-based; conditions: in vivo, 336 h, dose 60-120 mg/kg, time 14 day
MDA-MB-231 [14] = assay: Induction of cell cycle arrest in human MDA-MB-231 cells assessed as increase in accumulation of cells at S phase at 12.5 to 50 uM after 24 hrs by propidium iodide staining base flow cytometric analysis relative to control; format: functional; conditions: dose 12.5-50 µM

Structure (SMILES) | IC50 (MDA-MB-231 [1]) | IC50 (MCF7) | other results
COc1ccc2cc([C@H](C)C(=O)N/N=C/c3ccc([N+](=O)[O-])o3)ccc2c1 | > 400 µM | 41.8 µM | –
COc1ccc2cc([C@H](C)C(=O)N/N=C/c3ccc(OC(F)(F)F)cc3)ccc2c1 | 79.5 µM | > 400 µM | –
COc1ccc2cc([C@H](C)C(=O)N/N=C/c3ccccc3OC(F)(F)F)ccc2c1 | 22.4 µM | 59.8 µM | Activity (MDA-MB-231 [2]): Active; Activity (Ehrlich): Active; Activity [3]: Non-Toxic; Activity (MDA-MB-231 [4]): Active; Activity (MDA-MB-231 [5]): Active; Activity (MDA-MB-231 [6]): 18.2%; IC50 (HEK293): 162 µM; Activity (MDA-MB-231 [7]): Active; Activity (MDA-MB-231 [8]): Active; Activity (MDA-MB-231 [9]): Active; Activity (MDA-MB-231 [10]): Dose-dependent effect; Activity (MDA-MB-231 [11]): 14.5%; IC50 [12]: 49 µM; Activity [13]: Non-Toxic; Activity (MDA-MB-231 [14]): 12.3%
COc1cccc2c1C(=O)c1c(O)c3c(c(O)c1C2=O)C[C@@](O)(C(=O)CO)C[C@@H]3O[C@H]1C[C@H](N)[C@H](O)[C@H](C)O1 [DOXORUBICIN] | 0.06 µM | – | Activity (MDA-MB-231 [8]): Active; Activity (MDA-MB-231 [9]): Active
CCc1ccc(/C=N/NC(=O)[C@@H](C)c2ccc3cc(OC)ccc3c2)o1 | 178 µM | 260 µM | –
COc1ccc2cc([C@H](C)C(=O)N/N=C/c3ccc(C(F)(F)F)cc3)ccc2c1 | 67 µM | 147 µM | –
COc1ccc2cc([C@H](C)C(=O)N/N=C/c3cc(C(F)(F)F)cc(C(F)(F)F)c3)ccc2c1 | 353 µM | 185 µM | –
COc1ccc2cc([C@H](C)C(=O)N/N=C/c3cccc(C(F)(F)F)c3)ccc2c1 | 55.5 µM | 69.4 µM | –
COc1ccc2cc([C@H](C)C(=O)O)ccc2c1 [NAPROXEN] | > 400 µM | > 400 µM | Activity (MDA-MB-231 [4]): inactive; Activity (MDA-MB-231 [7]): inactive
COc1ccc2cc([C@H](C)C(=O)N/N=C/c3c(F)cccc3F)ccc2c1 | 132 µM | 91.2 µM | –
COc1ccc2cc([C@H](C)C(=O)N/N=C/c3cccn3C)ccc2c1 | 129 µM | 352 µM | –
COc1ccc2cc([C@H](C)C(=O)N/N=C/c3ccc(C#N)cc3)ccc2c1 | 389 µM | 60.9 µM | –
COc1ccc2cc([C@H](C)C(=O)N/N=C/c3cc(Br)cs3)ccc2c1 | 183 µM | > 400 µM | –
COc1ccc2cc([C@H](C)C(=O)N/N=C/c3cccc(OC(F)(F)F)c3)ccc2c1 | 157 µM | > 400 µM | –

From ChEMBL document CHEMBL4732261, “Design and synthesis of novel (S)-Naproxen hydrazide-hydrazones as potent VEGFR-2 inhibitors and their evaluation in vitro/in vivo breast cancer models” (Bioorg Med Chem, 2021)
